From US20220409727A1, “Metal Complexes Bearing Bisstyryl-Bipyridine Ligand and Their Use as Photosensitizer Agent in One and Two-Photon Photodynamic Therapy” (Paris Sciences et Lettres, priority 2019, published 2022) come the findings set out here.

A short description of data set [1]: Emission measurement in CH3CN. Type of data set: physicochemical. To be noted: room temperature, excitation at 355 nm. The procedure:
The absorption of the samples was measured with a SpectraMax M2 Spectrometer (Molecular Devices). The emission was measured by irradiation of the sample in fluorescence quartz cuvettes (width 1 cm) using a NT342B Nd-YAG pumped optical parametric oscillator (Ekspla) at 355 nm. Luminescence was focused and collected at right angle to the excitation pathway and directed to a Princeton Instruments Acton SP-2300i monochromator. As a detector, a XPI-Max 4 CCD camera (Princeton Instruments) has been used.

The test system of data set [2] is non-cancerous retinal pigment epithelium (RPE-1) cells. Description: (Photo-)cytotoxicity on 2D cell monolayers, resazurin assay, RPE-1.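 For all read-outs here: cells exposed to compound 4 h, medium exchanged, then irradiated or kept dark, 44 h further growth, viability by resorufin fluorescence (ex 540 nm, em 590 nm).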 The settings on record: for PI (480 nm): RPE-1, dark vs 480 nm (10 min, 3.1 J/cm^2); for PI (540 nm): RPE-1, dark vs 540 nm (40 min, 9.5 J/cm^2).
Description: (§2) The human glioblastoma astrocytoma (U373) cell line was cultured in MEM medium supplemented with 10% FBS, 1% NEAA (non-essential amino-acids) and 1% penicillin/streptomycin. […] The human retinal epithelial cells (RPE-1, non-cancerous cells immortalized with hTERT) were cultured in DMEM-F12 medium supplemented with 10% FBS and 1% penicillin/streptomycin. All cell lines were obtained from the American Type Culture Collection (ATCC) and cultured at 37° C. and 5% CO2. Before an experiment, the cells were passaged three times.
(§3) The cytotoxicity of the compounds was assessed by measuring cell viability using a fluorometric resazurin assay. The cultivated cells were seeded in triplicates in 96 well plates with a density of 4000 cells per well in 100 μL of media. After 24 h, the medium was removed and the cells were treated with increasing concentrations of the compound diluted in cell media achieving a total volume of 200 μL. The cells were incubated with the compound for 4 h. After this time, the media was removed and replaced with 200 μL of fresh medium. For the phototoxicity studies, the cells were exposed to light with an Atlas Photonics LUMOS BIO irradiator. Each well was constantly illuminated with either a 480 nm or 540 nm irradiation. During this time, the temperature was maintained constantly at 37° C. The cells were grown in the incubator for additional 44 h. For the determination of the dark cytotoxicity, the cells were not irradiated and after the medium exchange directly incubated for 44 h. After this time, the medium was replaced with fresh medium containing resazurin with a final concentration of 0.2 mg/mL. After 4 h incubation, the amount of the fluorescent product resorufin was determined upon excitation at 540 nm and measurement its emission at 590 nm using a SpectraMax M2 Microplate Reader (Molecular Devices).
(§4) The obtained data was analyzed with the GraphPad Prism software.
Data set [3] in a line: Singlet oxygen measurement, indirect evaluation (RNO absorbance). The class given is physicochemical. To be noted: indirect. The procedure:
For the measurement in CH3CN: The samples were prepared in an air-saturated CH3CN solution containing the complex with an absorbance of 0.2 at the irradiation wavelength, N,N-dimethyl-4-nitrosoaniline aniline (RNO, 24 μM) and imidazole (12 mM). For the measurement in PBS buffer: The samples were prepared in an air-saturated PBS solution containing the complex with an absorbance of 0.1 at the irradiation wavelength, N,N-dimethyl-4-nitrosoaniline aniline (RNO, 20 μM) and histidine (10 mM). The samples were irradiated on 96 well plates with an Atlas Photonics LUMOS BIO irradiator for different times. The absorbance of the samples was measured during these time intervals with a SpectraMax M2 Microplate Reader (Molecular Devices). The difference in absorbance (A0−A) at 420 nm for the CH3CN solution or at 440 nm a PBS buffer solution was calculated and plotted against the irradiation times. From the plot the slope of the linear regression was calculated as well as the absorbance correction factor determined. The singlet oxygen quantum yields were calculated using the same formulas as used for the direct evaluation.

The nature of data set [4]: Luminescence lifetime measurements. Type of data set: physicochemical. The settings on record: excitation at 355 nm. The procedure:
(§1) For the determination of the lifetimes, the samples were prepared in an air saturated and in a degassed CH3CN solution with an absorbance of 0.2 at 355 nm. This solution was irradiated in fluorescence quartz cuvettes (width 1 cm) using a NT342B Nd-YAG pumped optical parametric oscillator (Ekspla) at 355 nm. The emission signal was focused and collected at right angle to the excitation pathway and directed to a Princeton Instruments Acton SP-2300i monochromator. As a detector a R928 photomultiplier tube (Hamamatsu) has been used.

Data set [5] relates to human glioblastoma astrocytoma (U373) cells.
Data set [6] is described as follows: Luminescence quantum yield measurements. To be noted: CH3CN, room temperature, excitation at 355 nm. Further details: key: fraction, relative to [Ru(bipy)3]Cl2 reference in CH3CN (Φem=5.9%). The class given is physicochemical. The procedure:
as §1, with “luminescence quantum yield,” for “lifetimes,”, “an” for “an air saturated and in a degassed”, “0.1” for “0.2”, “XPI-Max 4 CCD camera (Princeton Instruments)” for “R928 photomultiplier tube (Hamamatsu)”, “used. The luminescence quantum yields were determined by comparison with the reference [Ru(bipy)3]Cl2 in CH3CN (Φem=5.9%) (Nakamaru, K., 1982) applying the following formula:” for “used.”
Φem, sample=Φem, reference*(Freference/Fsample)*(Isample/Ireference)*(nsample/nreference)^2
Φem=luminescence quantum yield, F=fraction of light absorbed, I=integrated emission intensities, n=refractive index, A=absorbance of the sample at irradiation wavelength.

Data set [7] is described as follows: Singlet oxygen measurement, direct evaluation (1O2 luminescence at 1270 nm). Type of data set: physicochemical. Here is the method:
The samples were prepared in an air saturated CH3CN or D2O solution with an absorbance of 0.2 at 450 nm. This solution was irradiated in fluorescence quartz cuvettes (width 1 cm) using a mounted M450LP1 LED (Thorlabs) whose irradiation, centered at 450 nm, has been focused with aspheric condenser lenses. The intensity of the irradiation has been varied using a T-Cube LED Driver (Thorlabs) and measured with an optical power and energy meter. The emission signal was focused and collected at right angle to the excitation pathway and directed to a Princeton Instruments Acton SP-2300i monochromator. A longpass glass filter was placed in front of the monochromator entrance slit to cut off light at wavelengths shorter than 850 nm. As a detector an EO-817L IR-sensitive liquid nitrogen cooled germanium diode detector (North Coast Scientific Corp.) has been used. The singlet oxygen luminesce at 1270 nm was measured by recording spectra from 1100 to 1400 nm. For the data analysis, the singlet oxygen luminescence peaks at different irradiation intensities were integrated. The resulting areas were plotted against the percentage of the irradiation intensity and the slope of the linear regression calculated. The absorbance of the sample was corrected with an absorbance correction factor. As reference for the measurement Rose Bengal (Φ=76%) (Kochevar, I. E. and Redmond, R. W., 2000) was used and the singlet oxygen quantum yields were calculated using the following formula:
Φsample=Φreference*(Ssample/Sreference)*(Ireference/Isample)
Φ=singlet oxygen quantum yield, S=slope of the linear regression of the plot of the areas of the singlet oxygen luminescence peaks against the irradiation intensity, I=absorbance correction factor, […] of the irradiation source, A=absorbance of the sample at irradiation wavelength.

Data set [8] concerns mouse colon carcinoma (CT-26) cells.
Description: as §2, §3, §4
Data set [9] shares this test system. Put plainly: (Photo-)cytotoxicity on 2D cell monolayers, resazurin assay, CT-26. To be noted: for PI (480 nm): CT-26, dark vs 480 nm (10 min, 3.1 J/cm^2); for PI (540 nm): CT-26, dark vs 540 nm (40 min, 9.5 J/cm^2); for IC50: compounds 1-3 as chloride salts.
Description: as §2, §3, §4
Data set [10] deals with human cervical carcinoma (HeLa) cells. Put plainly: (Photo-)cytotoxicity on 2D cell monolayers, resazurin assay, HeLa. Type of data set: cell-based. To be noted: for PI (480 nm): dark vs 480 nm (10 min, 3.1 J/cm^2); for PI (540 nm): dark vs 540 nm (40 min, 9.5 J/cm^2). The source says:
Before an experiment, the cells were passaged three times.
For orientation: Alamar Blue is a resazurin reagent that responds to reducing activity.

Data set [11] relates to human glioblastoma astrocytoma (U373) cells. Put plainly: (Photo-)cytotoxicity on 2D cell monolayers, resazurin assay, U373. To be noted: for PI (480 nm): U373, dark vs 480 nm (10 min, 3.1 J/cm^2); for PI (540 nm): U373, dark vs 540 nm (40 min, 9.5 J/cm^2); for IC50: compounds 1-3 as chloride salts.
[12] abbreviates: read-out: IC50 540 nm (40 min, 9.5 J/cm^2), CT-26, irradiation 540 nm (40 min, 9.5 J/cm^2).
The mark [13] stands for this setting: read-out: IC50 dark, CT-26, dark, 4 h incubation.
[14] abbreviates: dark, 4 h incubation, compounds 1-3 as chloride salts, read-out: IC50 dark.
The mark [15] stands for this setting: read-out: IC50 480 nm (10 min, 3.1 J/cm^2), irradiation 480 nm (10 min, 3.1 J/cm^2), compounds 1-3 as chloride salts.
Setting [16] is: read-out: IC50 540 nm (40 min, 9.5 J/cm^2), irradiation 540 nm (40 min, 9.5 J/cm^2), compounds 1-3 as chloride salts.
[17] abbreviates: read-out: IC50 480 nm (10 min, 3.1 J/cm^2), U373, irradiation 480 nm (10 min, 3.1 J/cm^2).
The mark [18] stands for this setting: read-out: IC50 dark, U373, dark, 4 h incubation.

Where two headings read alike, the source gives them in different places.

With `C(=C\c1ccnc(-c2cc(/C=C/c3ccccc3)ccn2)c1)/c1ccccc1.C(=C\c1ccnc(-c2cc(/C=C/c3ccccc3)ccn2)c1)/c1ccccc1.C(=C\c1ccnc(-c2cc(/C=C/c3ccccc3)ccn2)c1)/c1ccccc1.F[P-](F)(F)(F)(F)F.F[P-](F)(F)(F)(F)F.[Ru+2]` [Compound 1], in data set [1], the “λem/nm (Emission maximum)” value came to 677 nm. Besides, the “PI (480 nm)” value in data set [2] is listed as >3.2; in data set [9] it was >4.9; in data set [10], >3.4; in data set [11] it was >1.9. Also, the “PI (540 nm)” value in [2] was >3.2; in [9], >3.0; in data set [10], >2.1; in data set [11], >1.2. The “Singlet oxygen quantum yield, indirect 450 nm CH3CN” value in data set [3] amounted to 66%. Moreover, the “Singlet oxygen quantum yield, indirect 450 nm PBS” value in [3] came to 5%. The “Singlet oxygen quantum yield, indirect 540 nm CH3CN” value in data set [3] is 61%. In addition, the “Singlet oxygen quantum yield, indirect 540 nm PBS” value in data set [3] was determined as 3%. Moreover, the “τ/ns air (Lifetime)” value in data set [4] (air saturated CH3CN) is 86 ns. Further, the “τ/ns degassed (Lifetime)” value in [4] (degassed CH3CN) turned out to be 385 ns. The IC50 was 83.1 ± 6.7 µM in data set [5]; 20.3 ± 1.8 µM in data set [8]; 33.4 ± 3.5 µM in data set [9] (setting [12]); > 100 µM in data set [9] (setting [13]); > 100 µM in [10] (setting [14]); 29.5 ± 1.2 µM in data set [10] (setting [15]). In addition, the IC50 in [10] (setting [16]) is 48.7 ± 4.5 µM; in [11] (setting [17]) it was 51.7 ± 3.2 µM; in data set [11] (setting [18]), > 100 µM. Also, the “ϕem (Luminescence Quantum Yield)” value in data set [6] is reported as 0.019. For the same compound, in data set [7], the “Singlet oxygen quantum yield, direct 450 nm CH3CN” value turned out to be 65%.
Regarding `F[P-](F)(F)(F)(F)F.F[P-](F)(F)(F)(F)F.[Ru+2].c1cnc2c(c1)ccc1cccnc12.c1cnc2c(c1)ccc1cccnc12.c1cnc2c(c1)ccc1cccnc12` [[Ru(1,10-phenanthroline)3][PF6]2, reference compound], the “Singlet oxygen quantum yield, indirect 450 nm CH3CN” value in data set [3] is listed as 23%. For the same compound, the “Singlet oxygen quantum yield, indirect 450 nm PBS” value in data set [3] turned out to be 2%. Further, in [3], the “Singlet oxygen quantum yield, indirect 540 nm CH3CN” value is given as 22%. In addition, the “Singlet oxygen quantum yield, indirect 540 nm PBS” value in [3] was determined as 2%. Also, the IC50 in [5], in [8], in data set [9] (setting [12]), in [9] (setting [13]), in data set [10] (setting [14]) and in [10] (setting [15]) was > 100 µM throughout. The IC50 in [10] (setting [16]), in data set [11] (setting [17]) and in data set [11] (setting [18]) was > 100 µM in each case. Moreover, the “Singlet oxygen quantum yield, direct 450 nm CH3CN” value in [7] is given as 25%.
Consider “[Ru(4,7-Diphenyl-1,10-phenanthroline)3][PF6]2 [reference compound]”, for which the “PI (480 nm)” value in data set [2] worked out at 13.4; in [9], 7.0; in data set [10] it was 12.1; in data set [11], 7.8. The “PI (540 nm)” value in data set [2] was found to be 10.1; in [9], 5.6; in [10], 7.7; in data set [11], 8.4. Further, the “Singlet oxygen quantum yield, indirect 450 nm CH3CN” value in [3] is listed as 47%. Moreover, in [3], the “Singlet oxygen quantum yield, indirect 450 nm PBS” value was 4%. Further, in data set [3], the “Singlet oxygen quantum yield, indirect 540 nm CH3CN” value came out at 45%. In data set [3], the “Singlet oxygen quantum yield, indirect 540 nm PBS” value was 3%. Further, the IC50 turned out to be 1.2 ± 0.3 µM in data set [5]; 0.4 ± 0.2 µM in [8]; 0.5 ± 0.2 µM in data set [9] (setting [12]); 2.8 ± 0.5 µM in [9] (setting [13]); 8.5 ± 0.4 µM in [10] (setting [14]); 0.7 ± 0.2 µM in [10] (setting [15]). In addition, the values for the IC50 in data set [10] (setting [16]), in data set [11] (setting [17]) and in data set [11] (setting [18]) were 1.1 ± 0.2 µM, 1.3 ± 0.2 µM and 10.1 ± 0.7 µM, respectively. Besides, in data set [7], the “Singlet oxygen quantum yield, direct 450 nm CH3CN” value came to 44%.
